Data from PubChem BioAssay (NCI).
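Grown in 96-well plates, cells were treated for 48 hours with each compound at five concentrations. Insufficient inhibition: endpoint recorded as highest concentration tested. At the GI50, growth is halved. TGI marks complete inhibition of growth.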

Legend:
Experiment in all cases: inhibition of tumour cell growth, NCI panel, 48 h
ACHN renal = system: ACHN renal
HCC-2998 colon = system: HCC-2998 colon
MCF7 breast = system: MCF7 breast
M14 melanoma = system: M14 melanoma
MOLT-4 leukemia = system: MOLT-4 leukemia
HOP-92 NSCLC = system: HOP-92 NSCLC
PC-3 prostate = system: PC-3 prostate
HCT-15 colon = system: HCT-15 colon
CAKI-1 renal = system: CAKI-1 renal
BT-549 breast = system: BT-549 breast

SMILES | GI50 (ACHN renal) | TGI (ACHN renal) | GI50 (HCC-2998 colon) | TGI (HCC-2998 colon) | GI50 (MCF7 breast) | TGI (MCF7 breast) | GI50 (M14 melanoma) | TGI (M14 melanoma) | GI50 (MOLT-4 leukemia) | TGI (MOLT-4 leukemia) | GI50 (HOP-92 NSCLC) | TGI (HOP-92 NSCLC) | GI50 (PC-3 prostate) | TGI (PC-3 prostate) | GI50 (HCT-15 colon) | TGI (HCT-15 colon) | TGI (CAKI-1 renal) | TGI (BT-549 breast) | GI50 (CAKI-1 renal) | GI50 (BT-549 breast)
Cc1cc(N2CCOCC2)nc(N(CCNc2ccnc3cc(Cl)ccc23)Cc2cccs2)n1 | 1.91 µM | 3.79 µM | 2.39 µM | 5.11 µM | 1.97 µM | 4.68 µM | 1.79 µM | 3.41 µM | 2.58 µM | 5.93 µM | 0.22 µM | 1.93 µM | 1.8 µM | 4.84 µM | 1.78 µM | 4.05 µM |  |  |  | 
COC(=O)C1CCC2(CC1)NC(=O)NC2=O (stereo not drawn) |  | > 100 µM |  | > 100 µM |  |  |  | > 100 µM |  | > 100 µM |  | > 100 µM |  |  |  |  | > 100 µM |  |  | 
Cc1nn(C(=O)CC(=O)Nc2ccccc2Cl)c(C)c1N=Nc1ccccc1Cl |  | > 100 µM |  | > 100 µM |  |  |  | > 100 µM |  | > 100 µM |  | > 100 µM |  |  |  | > 100 µM | > 100 µM |  |  | 
O=C(Nc1cccc(Cl)c1)c1cc2cc(N=Nc3ccc(Br)cc3)ccc2oc1=O |  | > 100 µM |  | 88.7 µM |  |  |  | 52.9 µM |  | 77.7 µM |  | > 100 µM |  |  |  | > 100 µM | > 100 µM |  |  | 
NC(=O)NOCC1NC(=O)NC1=O (stereo not drawn) |  | > 100 µM |  |  |  | > 100 µM |  | > 100 µM |  | > 100 µM |  | > 100 µM |  | > 100 µM |  | > 100 µM | > 100 µM | > 100 µM |  | 
Cn1c(N)cc(=O)nc1N |  | > 100 µM |  | > 100 µM |  | > 100 µM |  | > 100 µM |  | > 100 µM |  |  |  | > 100 µM |  | > 100 µM | > 100 µM | > 100 µM |  | 
CN(C)c1ccc(/C=C/C(=O)c2ccc(Nc3nc(Nc4ccc(F)cc4)nc(Nc4ccc(Cl)cc4)n3)cc2)cc1 | 6.13 µM | > 100 µM | 15.4 µM | > 100 µM | 2.61 µM | 21.5 µM | 4.29 µM | 19.1 µM | 1.55 µM | 5.23 µM |  |  | 2.08 µM | 5.45 µM | 4.66 µM | > 100 µM | > 100 µM | 55.7 µM | 14.6 µM | 7.39 µM
O=C1OC2C(O)COC2(OCc2c[nH]c3ccccc23)C1O (stereo not drawn) (tested in a mixture with another compound) |  |  |  |  |  |  |  | > 100 µM |  | > 100 µM |  | > 100 µM |  |  |  | > 100 µM | > 100 µM |  |  | 
COc1ccc2nccc(C3OC(=O)N4CCC(=O)CC34)c2c1 (stereo not drawn) |  | > 100 µM |  |  |  |  |  | > 100 µM |  | > 100 µM |  | > 100 µM |  |  |  | > 100 µM | > 100 µM |  |  | 
CCCC1C2=C(C(=O)OC2=O)C2C(CC)CC3=C(C(=O)OC3=O)C12 (stereo not drawn) |  | > 100 µM |  |  |  | > 100 µM |  | > 100 µM |  | > 100 µM |  | > 100 µM |  | > 100 µM |  | > 100 µM | > 100 µM | > 100 µM |  | 
O=C(/C=C\c1ccc(Cl)c(Cl)c1)c1ccccc1 | 7.65 µM | 20.5 µM | 4.75 µM | 16.9 µM | 1.89 µM | 5.58 µM | 7.37 µM | 21.5 µM | 5.36 µM | 40.3 µM |  |  | 5.93 µM | 20.7 µM | 2.84 µM | 10.3 µM | 19.3 µM | 22 µM | 6.33 µM | 9.85 µM
Cc1cn2cc(-c3ccncc3)nc2s1 |  | > 100 µM |  | > 100 µM |  |  |  | > 100 µM |  | > 100 µM |  | > 100 µM |  |  |  | > 100 µM | > 100 µM |  |  | 
COc1ccc(/C=C(\NC(=O)c2ccccc2)c2nc3ccccc3[nH]2)cc1 |  | > 100 µM |  | > 100 µM |  |  |  | > 100 µM |  | 83.1 µM |  | > 100 µM |  |  |  | > 100 µM | > 100 µM |  |  | 
Cc1ccc(SCN2CCCCC2)cc1 (tested in a mixture with another compound) |  | 28.7 µM |  |  |  | 59.4 µM |  | 37.3 µM |  | 16.2 µM |  | 31 µM |  | 30.2 µM |  | 32 µM | 26.3 µM | 15 µM |  | 
CCc1cccc(C(C)C)c1C1C(=O)C(=O)N(c2nc3ccccc3s2)C(=O)C1=O |  | > 100 µM |  | > 100 µM |  |  |  | > 100 µM |  | > 100 µM |  | > 100 µM |  |  |  | > 100 µM | > 100 µM |  |  | 
O=S(O)CCCSSCCCCSSCCCS(=O)O |  | > 100 µM |  | > 100 µM |  |  |  | > 100 µM |  | > 100 µM |  |  |  |  |  | > 100 µM | > 100 µM |  |  | 
O=C1c2ccccc2CC1C1(O)C(=O)Nc2c(Cl)cc(Cl)cc21 (stereo not drawn) |  | > 100 µM |  | > 100 µM |  |  |  | > 100 µM |  | > 100 µM |  | > 100 µM |  |  |  | > 100 µM | > 100 µM |  |  | 
CCN(CC)CC(C(=O)Nc1c(C)cccc1C)/C(C)=N/NC(N)=S (stereo not drawn) |  | > 100 µM |  | > 100 µM |  |  |  | > 100 µM |  | > 100 µM |  | > 100 µM |  |  |  |  |  |  |  | 

SMILES | GI50 (ACHN renal) | TGI (ACHN renal) | GI50 (HCC-2998 colon) | TGI (HCC-2998 colon) | GI50 (MCF7 breast) | TGI (MCF7 breast) | GI50 (M14 melanoma) | TGI (M14 melanoma) | GI50 (MOLT-4 leukemia) | TGI (MOLT-4 leukemia) | GI50 (HOP-92 NSCLC) | TGI (HOP-92 NSCLC) | GI50 (PC-3 prostate) | TGI (PC-3 prostate) | GI50 (HCT-15 colon) | TGI (HCT-15 colon) | TGI (CAKI-1 renal) | TGI (BT-549 breast) | GI50 (CAKI-1 renal) | GI50 (BT-549 breast)
O=c1c2ccccc2nc(-c2ccccc2Cl)n1NC1OC(CO)C(O)C(O)C1O (stereo not drawn) |  | > 100 µM |  | > 100 µM |  |  |  | > 100 µM |  | > 100 µM |  | > 100 µM |  |  |  | > 100 µM | > 100 µM |  |  | 
COc1cc(C2C(C(=O)Nc3ccc(Cl)c(Cl)c3)=C(C)NC(C)=C2C(=O)Nc2ccc(Cl)c(Cl)c2)ccc1O |  | 32.9 µM |  | 23.5 µM |  |  |  | 26.9 µM |  | 26.9 µM |  | 11.1 µM |  |  |  |  | 34.1 µM |  |  | 
CCN(CC)CCCC(C)NC(=S)N/N=C(\C)c1ccccn1 (stereo not drawn) | 2.99 µM | > 100 µM | 3.52 µM | > 100 µM | 2.94 µM | > 100 µM | 2.8 µM | 17.8 µM | 4.49 µM | > 100 µM | 3.98 µM | > 100 µM | 5.02 µM | > 100 µM | 2.49 µM | > 100 µM | > 100 µM |  | 4.56 µM | 
CN(C)CCCn1c2c(c3ccc([N+](=O)[O-])cc3c1=O)C(=O)c1ccccc1-2 | 4.54 µM | 17.8 µM | 15.3 µM | 41.7 µM | 2.41 µM | > 100 µM | 8.54 µM | > 100 µM | 0.696 µM | > 100 µM | 9.78 µM | > 100 µM | 6.06 µM | > 100 µM | 10.6 µM | 35.8 µM | 19.7 µM |  | 3.07 µM | 
CC1CCCC2(O1)OC1CC(=O)OC1C1=C2C(=O)c2ccccc2C1=O (stereo not drawn) |  | 15 µM |  | 8.7 µM |  |  |  | 7.89 µM |  | 4.09 µM |  |  |  |  |  | 8.04 µM | 7.13 µM |  |  | 
O=[N+]([O-])c1ccc(-c2ccc(C3=Nn4c(nnc4-c4ccc(Cl)cc4)SC3)o2)cc1 |  | > 100 µM |  | > 100 µM |  |  |  | > 100 µM |  | > 100 µM |  | > 75.8 µM |  |  |  | > 100 µM | > 100 µM |  |  | 
O=C1c2cccc3cc4ccccc4c(c23)C(=O)N1CCCNCCNCCCN1C(=O)c2cccc3cc4ccccc4c(c23)C1=O |  | 1.6 µM |  | 1.71 µM |  |  |  | 2.21 µM |  | 1.36 µM |  |  |  | 1.43 µM |  | 1.36 µM | 1.52 µM | 2.4 µM |  | 
COc1ccc(C(=O)CC(Cl)=C(Cl)Cl)cc1 | 20.1 µM | 41.4 µM |  |  | 53.4 µM | > 100 µM | 27.5 µM | 66.1 µM | 19.7 µM | 64.2 µM | 19.3 µM | 53.7 µM | 26.7 µM | > 100 µM | 28 µM | 97.4 µM | 53.5 µM | 57.3 µM | 23.2 µM | 21.6 µM
COc1cc(OC)c(-c2oc3ccccc3c(=O)c2O)c(OC)c1 |  | > 100 µM |  |  |  | > 100 µM |  | > 100 µM |  | > 100 µM |  | > 100 µM |  | > 100 µM |  | > 100 µM | > 40.5 µM | > 100 µM |  | 
S=C(N/N=C/c1ccccc1)NC1CC(c2ccccc2)Oc2ccccc21 (stereo not drawn) |  |  |  | > 100 µM |  |  |  | > 100 µM |  |  |  | 10.2 µM |  |  |  |  | > 100 µM |  |  | 
Cn1c(N)c(N=Nc2ccc(S(N)(=O)=O)cc2)c(=O)n(C)c1=O |  | > 100 µM |  |  |  | > 100 µM |  | > 100 µM |  | > 100 µM |  | > 100 µM |  | > 100 µM |  | > 100 µM | > 100 µM | > 100 µM |  | 
COCC(O)CN1C(N)=NC(O)C1O (stereo not drawn) |  | > 100 µM |  | > 100 µM |  |  |  | > 100 µM |  |  |  | > 100 µM |  |  |  |  | > 100 µM |  |  | 
Cc1nc2c(=O)n(C)c(=O)nc-2n(-c2ccc(Cl)cc2)c1C |  | > 100 µM |  | > 100 µM |  |  |  | > 100 µM |  |  |  | > 100 µM |  |  |  | > 100 µM | > 100 µM |  |  | 
Nc1cc2[nH]c(=O)c3cc(Cl)ccc3c2cc1Cl |  | 22.4 µM |  | > 100 µM |  | 13.8 µM |  | > 100 µM |  | > 100 µM |  |  |  |  |  | > 100 µM | 40.8 µM | > 100 µM |  | 
O=C1[C@@H]2C3C=CC([C@H]4C(=O)N(CO)C(=O)[C@@H]34)[C@@H]2C(=O)N1CO |  | > 83.5 µM |  | > 100 µM |  |  |  | > 75.2 µM |  | > 100 µM |  | > 100 µM |  |  |  | > 56.7 µM | > 100 µM |  |  | 
Cc1ccc(S(=O)(=O)NC2(C=O)CCC(C(C)(C)C)CC2)cc1 (stereo not drawn) |  | > 100 µM |  | > 100 µM |  |  |  | > 100 µM |  | 41.3 µM |  | 99.8 µM |  |  |  | > 100 µM | > 100 µM |  |  | 
CCCCCC1C2C(=O)NC(=O)C1C(=O)NC2=O (stereo not drawn) |  | > 100 µM |  | > 100 µM |  |  |  | > 100 µM |  | > 100 µM |  | > 100 µM |  |  |  | > 100 µM | > 100 µM |  |  | 
